The text below walks through data of PMC7880690, “Chemical genetics and proteome-wide site mapping reveal cysteine MARylation by PARP-7 on immune-relevant protein targets” (eLife, 2021).

The IC50 is the midpoint of a concentration-inhibition curve. The low end stands for greater potency in that assay, the high end for weaker potency in that assay.

Test [1] concerns the target T1, IG-PARP-12 (I660G PARP-12) (Homo sapiens, UniProt Q9H0J9, I660G).
T1 construct: GFP; expressed in transfected cells
The experiment in a line: Labeling by orthogonal NAD+ analogs with PARP-12 I660G mutant. The class given is biochemical. The note with it: compared to 5-Bn-6-a-NAD+. An excerpt: Figure 1. A chemical genetic strategy for identifying the direct MARylation targets of PARP-7. (a) Schematic of chemical genetic approach for identifying direct targets of PARP-7. (b) Crystal structure of human PARP1 bound to the non-hydrolyzable NAD^+ analog benzamide adenine dinucleotide (BAD). PDB: 6bhv. […] (c) Chemical structure of the clickable, orthogonal NAD^+ analogs. 5-Bn-2-e-NAD^+ is the optimized substrate for the floor position engineered PARP-7, IG-PARP-7. 5-Bn-6-a-NAD^+ was used in our previous studies by other floor position engineered PARPs (e.g. PARP14). (d) 5-Bn-2-e-NAD^+ is an efficient substrate for IG-PARP-7. HEK293T cells were transfected with either GFP-WT-PARP-7 (control) or GFP-IG-PARP-7. Cell lysates were prepared and incubated with either 5-Bn-2-e-NAD^+ or 5-Bn-6-a-NAD^+ (100 µM). Following copper-catalyzed click chemistry with biotin-azide, proteins were resolved by SDS-PAGE and biotinylated proteins were detected by Western blot detection using Streptavidin-HRP. Biotinylated proteins represent direct MARylation targets of PARP-7. Figure 1—figure supplement 1. Enrichment of PARP-7 MARylation targets and labeling of PARP-12 IG targets using a chemical genetic approach. (a) Labeling of PARP-7 MARylation targets was performed as described in Figure 1. Neutravidin agarose was used to enrich biotinylated proteins (i.e. MARylation targets). […]

The target of the next test is T2, PARP8FL (Homo sapiens, UniProt Q8N3A8).
T2 sequence (Q8N3A8 1-854): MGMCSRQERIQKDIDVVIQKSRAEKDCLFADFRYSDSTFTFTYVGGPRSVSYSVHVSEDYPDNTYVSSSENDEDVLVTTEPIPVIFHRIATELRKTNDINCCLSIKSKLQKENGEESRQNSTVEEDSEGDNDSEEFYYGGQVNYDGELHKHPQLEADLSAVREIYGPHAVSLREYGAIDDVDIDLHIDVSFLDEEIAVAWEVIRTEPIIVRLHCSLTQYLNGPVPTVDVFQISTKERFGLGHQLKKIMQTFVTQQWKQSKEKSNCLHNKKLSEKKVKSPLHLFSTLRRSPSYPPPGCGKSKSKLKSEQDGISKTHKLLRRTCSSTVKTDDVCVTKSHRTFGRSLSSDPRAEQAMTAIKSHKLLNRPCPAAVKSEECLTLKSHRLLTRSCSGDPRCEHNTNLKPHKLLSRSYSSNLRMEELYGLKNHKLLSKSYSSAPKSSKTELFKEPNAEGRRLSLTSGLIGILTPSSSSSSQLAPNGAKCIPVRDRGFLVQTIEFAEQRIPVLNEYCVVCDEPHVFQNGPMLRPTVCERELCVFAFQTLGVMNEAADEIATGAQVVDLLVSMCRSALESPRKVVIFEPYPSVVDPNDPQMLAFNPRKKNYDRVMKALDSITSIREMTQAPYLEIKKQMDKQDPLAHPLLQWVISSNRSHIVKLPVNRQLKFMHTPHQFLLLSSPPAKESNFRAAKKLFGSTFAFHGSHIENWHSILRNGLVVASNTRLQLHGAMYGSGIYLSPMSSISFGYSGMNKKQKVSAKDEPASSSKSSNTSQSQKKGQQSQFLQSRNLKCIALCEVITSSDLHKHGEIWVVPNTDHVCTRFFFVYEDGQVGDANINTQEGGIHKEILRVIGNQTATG
The test is described as follows: ADP-ribosylation plate assay, PARP8FL.

A further test deals with T3, PARP14wwe-cat. (Homo sapiens, UniProt Q460N5).
T3 sequence (Q460N5 1523-1801 limits assumed): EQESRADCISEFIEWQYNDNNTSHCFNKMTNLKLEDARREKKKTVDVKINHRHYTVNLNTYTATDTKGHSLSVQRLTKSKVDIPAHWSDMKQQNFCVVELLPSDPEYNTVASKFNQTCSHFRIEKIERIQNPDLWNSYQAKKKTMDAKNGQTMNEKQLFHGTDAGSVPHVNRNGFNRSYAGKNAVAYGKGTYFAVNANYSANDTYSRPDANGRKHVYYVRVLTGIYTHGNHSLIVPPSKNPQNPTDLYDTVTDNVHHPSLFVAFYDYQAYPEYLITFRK
The experiment in a line: ADP-ribosylation plate assay, PARP14wwe-cat.

A further test concerns the target T4, PARP11FL (Homo sapiens, UniProt Q9NR21).
T4 sequence (Q9NR21 1-338): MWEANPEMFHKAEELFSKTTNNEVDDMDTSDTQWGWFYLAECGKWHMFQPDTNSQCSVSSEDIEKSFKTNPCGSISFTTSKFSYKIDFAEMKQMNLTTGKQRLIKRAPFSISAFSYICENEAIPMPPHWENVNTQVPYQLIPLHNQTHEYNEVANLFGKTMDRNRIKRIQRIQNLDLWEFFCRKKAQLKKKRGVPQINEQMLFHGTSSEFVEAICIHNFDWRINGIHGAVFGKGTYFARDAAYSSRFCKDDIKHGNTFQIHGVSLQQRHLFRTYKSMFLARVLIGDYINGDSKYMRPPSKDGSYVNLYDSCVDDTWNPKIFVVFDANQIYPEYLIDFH
The test is described as follows: ADP-ribosylation plate assay, PARP11FL.

T1 sequence (Q9H0J9 whole entry I660G): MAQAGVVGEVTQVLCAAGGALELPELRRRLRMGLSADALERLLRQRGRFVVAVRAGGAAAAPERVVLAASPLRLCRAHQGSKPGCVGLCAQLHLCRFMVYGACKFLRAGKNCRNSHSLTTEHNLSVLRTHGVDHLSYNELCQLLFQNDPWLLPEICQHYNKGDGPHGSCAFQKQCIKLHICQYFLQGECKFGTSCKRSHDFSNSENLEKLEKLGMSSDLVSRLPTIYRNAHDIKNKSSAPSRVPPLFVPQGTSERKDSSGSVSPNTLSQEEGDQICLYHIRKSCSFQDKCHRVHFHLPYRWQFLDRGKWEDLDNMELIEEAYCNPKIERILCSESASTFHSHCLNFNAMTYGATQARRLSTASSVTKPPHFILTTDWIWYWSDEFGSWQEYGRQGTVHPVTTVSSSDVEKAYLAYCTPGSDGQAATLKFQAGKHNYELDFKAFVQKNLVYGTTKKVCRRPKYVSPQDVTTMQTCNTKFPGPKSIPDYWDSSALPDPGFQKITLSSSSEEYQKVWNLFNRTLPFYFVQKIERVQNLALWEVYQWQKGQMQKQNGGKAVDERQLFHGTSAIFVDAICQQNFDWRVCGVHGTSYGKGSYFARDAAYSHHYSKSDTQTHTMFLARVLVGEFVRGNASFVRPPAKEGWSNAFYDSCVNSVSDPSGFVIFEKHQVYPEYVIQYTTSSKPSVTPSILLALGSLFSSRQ

With `C#Cc1nc(N)c2ncn(C3OC(COP(=O)(O)OP(=O)([O-])OCC4OC([n+]5cc(Cc6ccccc6)cc(C(N)=O)c5)C(O)C4O)C(O)C3O)c2n1` (stereo not shown) [5-Bn-2-e-NAD^+, 5-benzyl-2-ethynyl-NAD^+], the “substrate for IG-PARP-12” value in test [1] was “better substrate”.
For the compound `N#Cc1ccc(N2CCN(C(=O)c3cc(Cc4n[nH]c(=O)c5ccccc45)ccc3F)CC2)nc1` [Phthal01, 6-(4-(2-fluoro-5-((4-oxo-3,4-dihydrophthalazin-1-yl)methyl)benzoyl)piperazin-1-yl)nicotinonitrile], the half-maximal inhibitory concentration (IC50) was 4.7 ± 1 µM against PARP8FL, above 10 µM against PARP14wwe-cat. and 0.46 ± 0.02 µM against PARP11FL.
